{"source": "patent US7258999B2", "about": "“PTH responsive gene” (Wyeth, priority 2002, dated 2007)", "key": {"[1]": {"test_system": "PAIGB expression in UMR106 cells", "assay": "Real time PCR of PAIGB expression in UMR106 cells", "assay_type": "cell-based, rat", "excerpt": "Applicants performed multiplex real time PCR (TaqMan) analysis on previously DNAsed samples using gene specific probe and primers and 18S ribosomal RNA probe and primer sets purchased from Applied Biosystem. (Foster City, Calif.) The samples were DNAsed according to the protocol provided by Ambion (DNA-free kit). TaqMan probe and primers for PAIGB was identify using Primer Express computer program. The sequence for rat PAIGB TaqMan probe was 6FAM-5′[…] (SEQ ID NO: 16) forward and reverse primers were 5′[…] 3′ (SEQ ID NO:17) and 5′ […] 3′ (SEQ ID NO:18) respectively. The final concentrations for probes were 500 nM and 40 nM for PAIGB and 18S ribosomal RNA or GAPDH respectively. The concentrations of the primers were 500 nM for PAIGB forward and reversed primers while 18S primers were 10 and 20 nM for forward and reversed primer respectively or 40 nM for GAPDH primers. Standards for rat samples were made from rat tibia or brain RNA in the range of 250 ng to 0.1 ng, while standards for mouse specific TaqMan were made from mouse brain RNA and human standards from human brain RNA (Clonetech, Palo Alto, Calif.) spanning the same range of concentration. Primers and probes for mouse PAIGB were: forward 5′ […] 3′ (SEQ ID NO:19), reverse, 5′ […] 3′ (SEQ ID NO:20) anti-sense and probe 5′ 6FAM-[…] (SEQ ID NO:21). Primers and probes for human PAIGB were: forward 5′ […] 3′ (SEQ ID NO:22), reverse 5′ […] […]"}, "[2]": {"test_system": "PAIGB expression in ROS 17/2.8 cells", "assay": "Real time PCR of PAIGB expression in ROS 17/2.8 cells", "assay_type": "cell-based, rat", "settings": "for effect on PAIGB expression after 4 hours of treatment: estrogen 10 nM, tamoxifen 0.1 μM, BMP2 300 ng/ml, calcitonin 5 ng/ml", "excerpt": "Applicants performed multiplex real time PCR (TaqMan) analysis on previously DNAsed samples using gene specific probe and primers and 18S ribosomal RNA probe and primer sets purchased from Applied Biosystem. (Foster City, Calif.) The samples were DNAsed according to the protocol provided by Ambion (DNA-free kit). TaqMan probe and primers for PAIGB was identify using Primer Express computer program. The sequence for rat PAIGB TaqMan probe was 6FAM-5′[…] (SEQ ID NO: 16) forward and reverse primers were 5′[…] 3′ (SEQ ID NO:17) and 5′ […] 3′ (SEQ ID NO:18) respectively. The final concentrations for probes were 500 nM and 40 nM for PAIGB and 18S ribosomal RNA or GAPDH respectively. The concentrations of the primers were 500 nM for PAIGB forward and reversed primers while 18S primers were 10 and 20 nM for forward and reversed primer respectively or 40 nM for GAPDH primers. Standards for rat samples were made from rat tibia or brain RNA in the range of 250 ng to 0.1 ng, while standards for mouse specific TaqMan were made from mouse brain RNA and human standards from human brain RNA (Clonetech, Palo Alto, Calif.) spanning the same range of concentration. Primers and probes for mouse PAIGB were: forward 5′ […] 3′ (SEQ ID NO:19), reverse, 5′ […] (SEQ ID NO:21). Primers and probes for human PAIGB were: forward 5′ […] 3′ (SEQ ID NO:22), reverse 5′ […] 3′(SEQ ID NO: 24). The Taq-man analysis was done using ABI 7700 Sequence Detector under following conditions: 30 min at 48° C., 10 min at 95° C. and 40 cycles of 15 sec at 95° C. and 60 sec at 60° C. Analysis of real-time PCR analysis was performed using (Sequence Detector, Macintosh) program.\nFive cell types were primarily used in our experiments. Rat osteoblast cell line (ROS 17/2.8) that expresses moderate levels of PTH receptor 1 (Rodan et al, Rev. Eukaryotic Gene Expression 1:85-98, 1991) were used to perform in vitro experiments. ROS cells were maintained under standard cell culture conditions: 10% heat inactivated FBS in Dulbecco's Modified Eagle Medium with Nutrient Mixture F-12 (DMEM/F12) media, 1% Penicillin/Streptomycin and 1% Glutamax. Mouse cell line C3H10T½ (ATCC# CCL226) as a representative of mouse osteoprogenitor cell line were maintained in Eagles Minimal Essential Media (EMEM) with the addition of 10% heat inactivated FBS and 1% Penicillin/Streptomycin and 1% Glutamax. UMR106 rat osteoblastic cells (ATCC# CRL1661) were cultured in Dulbecco's Modified Eagle Medium (DMEM) supplemented with 10% heat inactivated FBS, 1% Penicillin/Streptomycin and 1% Glutamax. The U2OS human osteoblastic cells (ATCC# HTB96) were cultured in McCoy's 5A Medium Modified supplemented with 10% FBS, 1% Penicillin/Streptomycin and 1% Glutamax. The human HOB-03-CE6 cell line (Bodine, V. N. P., et. al., J. Cell. Biochem., 65: 368-387,1997) was maintained in phenol red free DMEM/F12 media supplemented with 10% heat inactivated FBS and 1% Penicillin/Streptomycin and 1% Glutamax.\nROS 17/2.8 rat osteoblast cell line that express PTH receptor (˜80000 receptors/cell) were treated with increased doses of PTH: 1 nM, 10 nM, 100 nM and 1000 nM. Real time PCR using rat specific Taq-man probes and primers were used to examine the changes in PAIGB expression with PTH treatment.\nTime course of PTH induction of PAIGB expression was examined. ROS 17/2.8_cells were treated with 10 nM PTH and RNA was harvested at 1, 2, 4, 6, 8 and 24 hours post treatment."}}, "data": [{"molecule": "C=C1CC[C@H](O)C/C1=C/C=C1\\CCC[C@]2(C)[C@@H]([C@H](C)CCCC(C)C)CC[C@@H]12", "note": "[vitamin D3]", "values": [{"measurement": "PAIGB expression in UMR106 cells", "setting": "[1]; UMR106 cells", "result": "induced"}]}, {"molecule": "CC/C(=C(\\c1ccccc1)c1ccc(OCCN(C)C)cc1)c1ccccc1", "note": "[tamoxifen]", "values": [{"measurement": "effect on PAIGB expression after 4 hours of treatment", "setting": "[2]; 4 hours", "result": "did not have any effect"}]}, {"molecule": "CC(C)NCC(O)c1ccc(O)c(O)c1", "note": "(stereo not shown) [isoproterenol]", "values": [{"measurement": "increase in PAIGB expression", "setting": "[2]; data not shown, concentration and cell line not restated", "result": 2, "unit": "fold"}]}, {"molecule": "calcitonin", "values": [{"measurement": "effect on PAIGB expression after 4 hours of treatment", "setting": "[2]; 4 hours", "result": "did not have any effect"}]}, {"molecule": "Nc1ncnc2c1ncn2C1CCCO1", "note": "(stereo not shown) [SQ 22536]", "values": [{"measurement": "blocking of the effect of PTH on PAIGB expression", "setting": "[2]; 200 μM, 2 hours pretreatment, then 10 nM PTH 4 hours", "result": "completely blocks"}]}, {"molecule": "COc1ccc(C2CNC(=O)C2)cc1OC1CCCC1", "note": "(stereo not shown) [Rolipram]", "values": [{"measurement": "PAIGB expression", "setting": "[2]; ROS 17/2.8 cells, data not shown", "result": "Increases"}, {"measurement": "PAIGB expression", "setting": "[1]; UMR 106 cells, data not shown", "result": "Increases"}]}, {"molecule": "CCCCC[C@H](O)/C=C/[C@H]1[C@H](O)CC(=O)[C@@H]1C/C=C\\CCCC(=O)O", "note": "[PGE2, prostaglandin E2]", "values": [{"measurement": "induction of PAIGB mRNA expression", "setting": "[2]; two concentrations 10 nM and 10 μM, 4 hours", "result": "only at the lower dose"}]}, {"molecule": "PKC inhibitor: Protein Kinase C inhibitor (PKC)19-27, an inhibitor of PKC signaling pathway (RFARKGALR; pseudosubstrate peptide; UniProt P17252 19-27, looked up, fragment)", "values": [{"measurement": "blocking of PTH induced PAIGB expression", "setting": "[2]; 10 μM, 2 hours pretreatment, then 10 nM PTH 4 hours", "result": "little to no effect"}]}, {"molecule": "C[C@@H]1C[C@H]2[C@@H]3CCC4=CC(=O)C=C[C@]4(C)[C@@]3(F)[C@@H](O)C[C@]2(C)[C@@]1(O)C(=O)CO", "note": "[dexamethasone]", "values": [{"measurement": "increase in PAIGB expression", "setting": "[2]; 100 nM, 4 hours", "result": "2-3 fold"}]}]}
